Source: patent US4220755A, “Fortimicin B derivatives and process for production thereof” (Abbott Laboratories, priority 1976, dated 1980)

What was measured:
[1] = system: Eschericia coli KY4271 ATCC26; assay: MIC, agar dilution method, pH 8.0; assay type: cell-based; conditions: Escherichia coli, ATCC26; pH 8.0; E. coli KY4271; read-out: Minimum inhibition concentration (MIC), EC
Experimental: (§1) Measurement was carried out according to the agar dilution method, using a medium of pH 8.0, or the Japanese Antibiotic Medicament Standard, using a medium of pH 7.2 Units are in mcg/ml.
E.C.: Eschericia coli KY4271 ATCC26

[2] = system: Proteus vulgaris KY4277 ATCC6897; assay: MIC, agar dilution method, pH 8.0; assay type: cell-based; conditions: ATCC6897; pH 8.0; Proteus vulgaris KY4277; read-out: Minimum inhibition concentration (MIC), PV
Experimental: as §1

[3] = system: Shigella sonnei KY4281 ATCC9290; assay: MIC, agar dilution method, pH 8.0; assay type: cell-based; conditions: ATCC9290; pH 8.0; Shigella sonnei KY4281; read-out: Minimum inhibition concentration (MIC), SS
Experimental: as §1

[4] = system: Salmonella typhosa KY4278 ATCC9992; assay: MIC, agar dilution method, pH 8.0; assay type: cell-based; conditions: Salmonella enterica, pH 8, read-out: Minimum inhibition concentration (MIC), ST
Experimental: as §1
S.T.: Salmonella typhosa KY4278 ATCC9992

[5] = system: various microorganisms; assay: Antibacterial activity (general statements); assay type: cell-based; conditions: qualitative statement
Experimental: as §1

[6] = system: Escherichia coli R18 KY8321; assay: MIC, agar dilution method, pH 7.2; assay type: cell-based; conditions: R18KY8321, E. coli R18 KY8321, 2**: gentamicin, producing adenylsynthetase and neomycin phosphotransferase type II, read-out: Minimum inhibition concentration (MIC)
Experimental: as §1
2: gentamicin, producing adenylsynthetase and neomycin phosphotransferase

[7] = system: Escherichia coli R20 KY8349; assay: MIC, agar dilution method, pH 7.2; assay type: cell-based; conditions: R20KY8349, pH 7.2, E. coli R20 KY8349, 5**: neomycin, producing phosphotransferase type I, read-out: Minimum inhibition concentration (MIC)
Experimental: as §1
5: neomycin, producing phosphotransferase type I.

[8] = system: Pseudomonas aeruginosa R9 KY8516; assay: MIC, agar dilution method, pH 7.2; assay type: cell-based; conditions: R9KY8516, pH 7.2, P. aeruginosa R9 KY8516, 3**: kanamycin, producing acetyltransferase, read-out: Minimum inhibition concentration (MIC)
Experimental: as §1
(§2) 3: kanamycin, producing acetyltransferase.

[9] = system: Escherichia coli R17 Z343; assay: MIC, agar dilution method, pH 7.2; assay type: cell-based; conditions: R17Z343, pH 7.2, E. coli R17 Z343, 3**: kanamycin, producing acetyltransferase, read-out: Minimum inhibition concentration (MIC)
Experimental: as §1, §2

[10] = system: Serratia marcescens 1065; assay: MIC, agar dilution method, pH 7.2; assay type: cell-based; conditions: pH 7.2; Serratia marcescens 1065; 3**: kanamycin, producing acetyltransferase; read-out: Minimum inhibition concentration (MIC)
Experimental: as §1, §2

[11] = system: Pseudomonas aeruginosa R4 KY8511; assay: MIC, agar dilution method, pH 7.2; assay type: cell-based; conditions: R4KY8511, pH 7.2, P. aeruginosa R4 KY8511, 4**: gentamicin, producing acetyltransferase type I, read-out: Minimum inhibition concentration (MIC)
Experimental: as §1
(§3) 4: gentamicin, producing acetyltransferase type I.

[12] = system: Escherichia coli R19 KY8348; assay: MIC, agar dilution method, pH 7.2; assay type: cell-based; conditions: R19KY8348, pH 7.2, E. coli R19 KY8348, 4**: gentamicin, producing acetyltransferase type I, read-out: Minimum inhibition concentration (MIC)
Experimental: as §1, §3

[13] = system: Staphylococcus a ureus 226; assay: MIC, agar dilution method, pH 7.2; assay type: cell-based, Staphylococcus aureus; conditions: pH 7.2; Staphylococcus aureus 226; read-out: Minimum inhibition concentration (MIC)
Experimental: as §1

[14] = system: Pseudomonas aeruginosa R5 KY8512; assay: MIC, agar dilution method, pH 7.2; assay type: cell-based; conditions: R5KY8512, pH 7.2, P. aeruginosa R5 KY8512, 6**: neomycin, producing phosphotransferase type I and type II, read-out: Minimum inhibition concentration (MIC)
Experimental: as §1
6: neomycin, producing phosphotransferase type I and type II.

[15] = system: Escherichia coli 57R/W677; assay: MIC, agar dilution method, pH 7.2; assay type: cell-based; conditions: 57R/W677, pH 7.2, read-out: Minimum inhibition concentration (MIC)
Experimental: as §1
(§4) **1: gentamicin, producing adenylsynthetase.

[16] = system: Escherichia coli R12 Z-338; assay: MIC, agar dilution method, pH 7.2; assay type: cell-based; conditions: R12Z338, pH 7.2, E. coli R12 Z-338, 1**: gentamicin, producing adenylsynthetase, read-out: Minimum inhibition concentration (MIC)
Experimental: as §1, §4

[17] = system: Escherichia coli 76-2; assay: MIC, agar dilution method, pH 7.2; assay type: cell-based; conditions: Escherichia coli, 762; pH 7.2; E. coli 76-2; 1**: gentamicin, producing adenylsynthetase; read-out: Minimum inhibition concentration (MIC)
Experimental: as §1, §4

[18] = system: Klebsiella pneumoniae 3020 Y-60; assay: MIC, agar dilution method, pH 7.2; assay type: cell-based; conditions: 3020Y60; pH 7.2; Klebsiella pneumoniae 3020 Y-60; 1**: gentamicin, producing adenylsynthetase; read-out: Minimum inhibition concentration (MIC)
Experimental: as §1, §4

[19] = system: Proteus vulgaris JJ; assay: MIC, agar dilution method, pH 7.2; assay type: cell-based; conditions: pH 7.2; Proteus vulgaris JJ; read-out: Minimum inhibition concentration (MIC)
Experimental: as §1

[20] = system: Staphylococcus aureus Smith (A); assay: MIC, agar dilution method, pH 7.2; assay type: cell-based; conditions: pH 7.2; Staphylococcus aureus Smith (A); read-out: Minimum inhibition concentration (MIC)
Experimental: as §1

[21] = system: Klebsiella pneumoniae KY4274; assay: MIC, agar dilution method, pH 7.2; assay type: cell-based; conditions: pH 7.2; Klebsiella pneumoniae KY4274; read-out: Minimum inhibition concentration (MIC)
Experimental: as §1

[22] = system: Salmonella enteritidis G-14; assay: MIC, agar dilution method, pH 7.2; assay type: cell-based; conditions: Salmonella enterica; pH 7.2; Salmonella enteritidis G-14; read-out: Minimum inhibition concentration (MIC)
Experimental: as §1

[23] = system: Pseudomonas aeruginosa UCLA 4184; assay: MIC, agar dilution method, pH 7.2; assay type: cell-based; conditions: UCLA4184; pH 7.2; Pseudomonas aeruginosa UCLA 4184; read-out: Minimum inhibition concentration (MIC)
Experimental: as §1

[24] = system: Staphylococcus aureus 209-P; assay: MIC, agar dilution method, pH 7.2; assay type: cell-based; conditions: pH 7.2; Staphylococcus aureus 209-P; read-out: Minimum inhibition concentration (MIC)
Experimental: as §1

[25] = system: Eschericihia coli GN2411-5; assay: MIC, agar dilution method, pH 7.2; assay type: cell-based; conditions: Escherichia coli; pH 7.2; E. coli GN2411-5; read-out: Minimum inhibition concentration (MIC)
Experimental: as §1

[26] = system: Escherichia coli NIHTC-2; assay: MIC, agar dilution method, pH 7.2; assay type: cell-based; conditions: NIHTC2; pH 7.2; Escherichia coli NIHTC-2; read-out: Minimum inhibition concentration (MIC)
Experimental: as §1

[27] = system: Shigella sonnei ATCC9290; assay: MIC, agar dilution method, pH 7.2; assay type: cell-based; conditions: read-out: Minimum inhibition concentration (MIC)
Experimental: as §1

[28] = system: Pseudomonas aeruginosa BMH# 1; assay: MIC, agar dilution method, pH 7.2; assay type: cell-based; conditions: pH 7.2; Pseudomonas aeruginosa BMH# 1; read-out: Minimum inhibition concentration (MIC)
Experimental: as §1

[29] = system: Staphylococcus aureus KY4279 ATCC6538P; assay: MIC, agar dilution method, pH 8.0; assay type: cell-based; conditions: Staphylococcus aureus, pH 8, read-out: Minimum inhibition concentration (MIC), SA
Experimental: as §1
S.A.: Staphylococcus aureus KY4279 ATCC6538P

[30] = system: Klebsiella pneumoniae KY4275 ATCC10031; assay: MIC, agar dilution method, pH 8.0; assay type: cell-based; conditions: ATCC10031; pH 8.0; Klebsiella pneumoniae KY4275; read-out: Minimum inhibition concentration (MIC), KP
Experimental: as §1
K.P.: Klebsiella pneumoniae KY4275 ATCC10031.

[31] = system: Providencia sp 164; assay: MIC, agar dilution method, pH 7.2; assay type: cell-based; conditions: pH 7.2; Providencia sp 164; 7**: gentamicin, producing acetyltransferase type II; read-out: Minimum inhibition concentration (MIC)
Experimental: as §1
7: gentamicin, producing acetyltransferase type II.

[32] = system: Bacillus subtilis KY4273; assay: MIC, agar dilution method, pH 8.0; assay type: cell-based; conditions: Bacillus subtilis, KY4273, pH 8, read-out: Minimum inhibition concentration (MIC), BS
Experimental: as §1
B.S.: Bacillus subtilis KY4273

[33] = system: Eschericihia coli 3100; assay: MIC, agar dilution method, pH 7.2; assay type: cell-based, Escherichia coli; conditions: Escherichia coli; pH 7.2; E. coli 3100; read-out: Minimum inhibition concentration (MIC)
Experimental: as §1

CN[C@H]1[C@@H](O)[C@H](O[C@H]2O[C@H]([C@H](C)N)CC[C@H]2N)[C@@H](N)[C@H](O)[C@@H]1OC [Compound 1, fortimicin B]
> 100 µg/mL: MIC [6] | MIC [7] | MIC [8] | MIC [9] | MIC [10] | MIC [11] | MIC [12] | MIC [14] | MIC [15] | MIC [16] | MIC [17] | MIC [18] | MIC [19] | MIC [23] | MIC [24] | MIC [25] | MIC [26] | MIC [27] | MIC [28] | MIC [31]
50 µg/mL: MIC [3] | MIC [30]
12.5 µg/mL: MIC [4] | MIC [29] | MIC [32]
100 µg/mL: MIC [13] | MIC [20] | MIC [21] | MIC [22] | MIC [33]
not as good as the other factors: Antibacterial activity [5]
25 µg/mL: MIC [1] | MIC [2]
